The experiment concerns the target α4β7 integrin (Homo sapiens (Human), UniProt P13612+P26010). The experiment can be described thus: α4β7 Integrin Cell Capture Assay. It is filed as cell-based. The following applies: capture of α4β7 expressing RPM18866 cells on MadCAM-1 extracellular domain-coated plate.

Sequence of α4β7 integrin (P13612 34-1032): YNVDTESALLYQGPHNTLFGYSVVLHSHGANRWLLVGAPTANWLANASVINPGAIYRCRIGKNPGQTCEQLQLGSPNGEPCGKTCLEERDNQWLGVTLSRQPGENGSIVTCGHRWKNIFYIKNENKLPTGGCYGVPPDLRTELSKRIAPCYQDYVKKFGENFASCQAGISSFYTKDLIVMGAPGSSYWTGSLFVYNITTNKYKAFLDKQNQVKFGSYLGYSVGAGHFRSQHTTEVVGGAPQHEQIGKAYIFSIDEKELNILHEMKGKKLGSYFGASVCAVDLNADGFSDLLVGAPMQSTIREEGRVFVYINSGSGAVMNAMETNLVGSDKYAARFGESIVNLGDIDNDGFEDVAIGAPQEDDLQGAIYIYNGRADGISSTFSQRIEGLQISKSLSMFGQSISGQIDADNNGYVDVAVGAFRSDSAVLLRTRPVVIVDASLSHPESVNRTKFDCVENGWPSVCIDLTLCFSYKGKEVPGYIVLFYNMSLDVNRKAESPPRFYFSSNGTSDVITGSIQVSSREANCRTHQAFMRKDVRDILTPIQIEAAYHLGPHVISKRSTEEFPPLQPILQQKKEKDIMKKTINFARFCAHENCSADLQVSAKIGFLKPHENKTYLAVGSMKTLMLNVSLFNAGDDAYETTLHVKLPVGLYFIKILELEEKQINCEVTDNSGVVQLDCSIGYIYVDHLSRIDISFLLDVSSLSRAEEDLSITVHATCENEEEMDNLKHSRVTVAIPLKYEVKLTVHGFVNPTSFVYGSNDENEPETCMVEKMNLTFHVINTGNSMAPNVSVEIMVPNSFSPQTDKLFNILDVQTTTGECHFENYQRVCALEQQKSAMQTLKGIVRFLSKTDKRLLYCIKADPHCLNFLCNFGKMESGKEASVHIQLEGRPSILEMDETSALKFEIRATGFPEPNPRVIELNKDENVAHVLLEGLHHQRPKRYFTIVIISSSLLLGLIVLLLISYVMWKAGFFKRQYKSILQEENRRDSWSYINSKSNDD
Sequence of α4β7 integrin (P26010 20-798): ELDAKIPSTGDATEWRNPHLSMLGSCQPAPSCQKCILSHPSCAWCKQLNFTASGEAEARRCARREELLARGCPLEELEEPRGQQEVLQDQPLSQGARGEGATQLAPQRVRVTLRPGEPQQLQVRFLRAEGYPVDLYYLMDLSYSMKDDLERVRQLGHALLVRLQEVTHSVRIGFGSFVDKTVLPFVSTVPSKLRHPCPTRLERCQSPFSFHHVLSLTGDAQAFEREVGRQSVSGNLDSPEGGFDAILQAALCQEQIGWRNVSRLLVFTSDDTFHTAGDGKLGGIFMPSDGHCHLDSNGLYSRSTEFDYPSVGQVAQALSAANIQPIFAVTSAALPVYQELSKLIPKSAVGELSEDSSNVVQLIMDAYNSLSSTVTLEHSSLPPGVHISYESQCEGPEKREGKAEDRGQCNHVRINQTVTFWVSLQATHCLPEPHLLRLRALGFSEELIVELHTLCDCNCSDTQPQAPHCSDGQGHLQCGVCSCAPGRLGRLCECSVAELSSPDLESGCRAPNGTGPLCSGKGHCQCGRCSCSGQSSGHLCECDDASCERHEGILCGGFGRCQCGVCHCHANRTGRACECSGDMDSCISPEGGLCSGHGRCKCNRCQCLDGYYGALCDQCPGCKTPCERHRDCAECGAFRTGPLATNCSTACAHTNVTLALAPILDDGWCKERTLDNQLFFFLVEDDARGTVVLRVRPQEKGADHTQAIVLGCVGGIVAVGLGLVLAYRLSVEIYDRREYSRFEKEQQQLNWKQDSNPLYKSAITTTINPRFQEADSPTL

Usually EC50 stands for the concentration needed to bring the measured effect to its halfway point. Lower therefore signals higher potency in that assay. As to `Cc1cc(C(F)(F)F)c(-c2ccc(C[C@H](NC(=O)c3c(F)cc(N4CCC[C@@H]4C(F)(F)F)cc3F)C(=O)O)c3cccnc23)c(=O)n1C` [Example 132, (S)-2-(2,6-difluoro-4-((R)-2-(trifluoromethyl)pyrrolidin-1-yl)benzamido)-3-(8-(1,6-dimethyl-2-oxo-4-(trifluoromethyl)-1,2-dihydropyridin-3-yl)quinolin-5-yl)propanoic acid], the 50% effective concentration (EC50) (Table 1) is 1.3 nM.

As to `CCCNc1cc(F)c(C(=O)N[C@@H](Cc2ccc(-c3c(C(F)(F)F)cc(C)n(C)c3=O)c3ncccc23)C(=O)O)c(F)c1` [Example 133, (S)-2-(2,6-difluoro-4-(propylamino)benzamido)-3-(8-(1,6-dimethyl-2-oxo-4-(trifluoromethyl)-1,2-dihydropyridin-3-yl)quinolin-5-yl)propanoic acid], the EC50 (Table 1) turned out to be 3.2 nM.

Molecule `CC[C@H](C)Nc1cc(F)c(C(=O)N[C@@H](Cc2ccc(-c3c(C(F)(F)F)cc(C)n(C)c3=O)c3ncccc23)C(=O)O)c(F)c1` [Example 134, (S)-2-(4-(((S)-sec-butyl)amino)-2,6-difluorobenzamido)-3-(8-(1,6-dimethyl-2-oxo-4-(trifluoromethyl)-1,2-dihydropyridin-3-yl)quinolin-5-yl)propanoic acid] returned a 50% effective concentration (EC50) (Table 1) of 4.2 nM.

For the molecule `CC[C@@H](N(C)c1cc(F)c(C(=O)N[C@@H](Cc2ccc(-c3c(C(F)(F)F)cc(C)n(C)c3=O)c3ncccc23)C(=O)O)c(F)c1)C(F)(F)F` [Example 135, (S)-2-(2,6-difluoro-4-(methyl((R)-1,1,1-trifluorobutan-2-yl)amino)benzamido)-3-(8-(1,6-dimethyl-2-oxo-4-(trifluoromethyl)-1,2-dihydropyridin-3-yl)quinolin-5-yl)propanoic acid], where the note is “Table 1”, the response was half-maximal at 0.4 nM (EC50).

Molecule `Cc1cc(C(F)(F)F)c(-c2ccc(C[C@H](NC(=O)c3c(F)cc(N4C[C@@H](C)OC[C@@H]4C(F)(F)F)cc3F)C(=O)O)c3cccnc23)c(=O)n1C` [Example 136, (S)-2-(2,6-difluoro-4-((2R,5R)-2-methyl-5-(trifluoromethyl)morpholino)benzamido)-3-(8-(1,6-dimethyl-2-oxo-4-(trifluoromethyl)-1,2-dihydropyridin-3-yl)quinolin-5-yl)propanoic acid] came in with an EC50 (Table 1) of 0.2 nM.

`Cc1cc(C(F)(F)F)c(-c2ccc(C[C@H](NC(=O)c3c(F)cc(N4CCO[C@H](C)[C@@H]4C(F)(F)F)cc3F)C(=O)O)c3cccnc23)c(=O)n1C` [Example 137, (S)-2-(2,6-difluoro-4-((2R,3R)-2-methyl-3-(trifluoromethyl)morpholino)benzamido)-3-(8-(1,6-dimethyl-2-oxo-4-(trifluoromethyl)-1,2-dihydropyridin-3-yl)quinolin-5-yl)propanoic acid] came in with an EC50 (Table 1) of 0.4 nM.

For `CC[C@@H](Nc1cc(F)c(C(=O)N[C@@H](Cc2ccc(-c3c(C(F)(F)F)cc(C)n(C)c3=O)c3ncc(N(C)C)cc23)C(=O)O)c(F)c1)C(F)(F)F` [Example 139, (S)-2-(2,6-difluoro-4-(((R)-1,1,1-trifluorobutan-2-yl)amino)benzamido)-3-(8-(1,6-dimethyl-2-oxo-4-(trifluoromethyl)-1,2-dihydropyridin-3-yl)-3-(dimethylamino)quinolin-5-yl)propanoic acid], a half-maximal effect (Table 1) (EC50) was put at 11.7 nM.

Consider `CC[C@@H](Nc1cc(F)c(C(=O)N[C@@H](Cc2ccc(-c3c(C(F)(F)F)cc(C)n(C)c3=O)c3ncc(F)cc23)C(=O)O)c(F)c1)C(F)(F)F` [Example 140, (S)-2-(2,6-difluoro-4-(((R)-1,1,1-trifluorobutan-2-yl)amino)benzamido)-3-(8-(1,6-dimethyl-2-oxo-4-(trifluoromethyl)-1,2-dihydropyridin-3-yl)-3-fluoroquinolin-5-yl)propanoic acid], for which the EC50 (Table 1) is 0.5 nM.

Under “Table 1”, `Cc1cc(N2CCOC[C@@H]2C(F)(F)F)cc(F)c1C(=O)N[C@@H](Cc1ccc(-c2c(C(F)(F)F)cc(C)n(C)c2=O)c2ncccc12)C(=O)O` [Example 141, (S)-3-(8-(1,6-dimethyl-2-oxo-4-(trifluoromethyl)-1,2-dihydropyridin-3-yl)quinolin-5-yl)-2-(2-fluoro-6-methyl-4-((R)-3-(trifluoromethyl)morpholino)benzamido)propanoic acid] displayed a concentration giving a half-maximal response (EC50) of 0.1 nM.

For the setting “Table 1”, `CC[C@@H](Nc1cc(C)c(C(=O)N[C@@H](Cc2ccc(-c3c(C(F)(F)F)cc(C)n(C)c3=O)c3ncccc23)C(=O)O)c(F)c1)C(F)(F)F` [Example 142, (S)-3-(8-(1,6-dimethyl-2-oxo-4-(trifluoromethyl)-1,2-dihydropyridin-3-yl)quinolin-5-yl)-2-(2-fluoro-6-methyl-4-(((R)-1,1,1-trifluorobutan-2-yl)amino)benzamido)propanoic acid] showed a concentration giving a half-maximal response (EC50) of 0.2 nM.

Molecule `CC[C@@H](Nc1cc(Cl)c(C(=O)N[C@@H](Cc2ccc(-c3c(C(F)(F)F)cc(C)n(C)c3=O)c3ncccc23)C(=O)O)c(Cl)c1)C(F)(F)F` [Example 143, (S)-2-(2,6-dichloro-4-(((R)-1,1,1-trifluorobutan-2-yl)amino)benzamido)-3-(8-(1,6-dimethyl-2-oxo-4-(trifluoromethyl)-1,2-dihydropyridin-3-yl)quinolin-5-yl)propanoic acid] gave a 50% effective concentration (EC50) (Table 1) of 0.3 nM.

Take `CC[C@@H](Nc1cc(F)c(C(=O)N[C@@H](Cc2ccc(-c3c(C(F)(F)F)cc(C)n(C)c3=O)c3ncccc23)C(=O)O)c(Cl)c1)C(F)(F)F` [Example 144, (S)-2-(2-chloro-6-fluoro-4-(((R)-1,1,1-trifluorobutan-2-yl)amino)benzamido)-3-(8-(1,6-dimethyl-2-oxo-4-(trifluoromethyl)-1,2-dihydropyridin-3-yl)quinolin-5-yl)propanoic acid]: under “Table 1”, the concentration giving a half-maximal response (EC50) is 0.2 nM.

Molecule `CC[C@@H](Nc1cc(F)c(C(=O)N[C@@H](Cc2ccc(-c3c(C(F)(F)F)cc(C)n(C)c3=O)c3ncccc23)C(=O)O)cc1C)C(F)(F)F` [Example 145, (S)-3-(8-(1,6-dimethyl-2-oxo-4-(trifluoromethyl)-1,2-dihydropyridin-3-yl)quinolin-5-yl)-2-(2-fluoro-5-methyl-4-(((R)-1,1,1-trifluorobutan-2-yl)amino)benzamido)propanoic acid] returned a 50% effective concentration (EC50) (Table 1) of 3.1 nM.

Regarding `CC[C@@H](N1CCCc2c1cc(F)c(C(=O)N[C@@H](Cc1ccc(-c3c(C(F)(F)F)cc(C)n(C)c3=O)c3ncccc13)C(=O)O)c2F)C(F)(F)F` [Example 146, (S)-2-(5,7-difluoro-1-((R)-1,1,1-trifluorobutan-2-yl)-1,2,3,4-tetrahydroquinoline-6-carboxamido)-3-(8-(1,6-dimethyl-2-oxo-4-(trifluoromethyl)-1,2-dihydropyridin-3-yl)quinolin-5-yl)propanoic acid], the EC50 (Table 1) was 0.6 nM.

As for `N#Cc1ccc(-c2ccc(C[C@H](NC(=O)c3c(F)cc(N[C@@H](C4CC4)C(F)(F)F)cc3F)C(=O)O)c3cccnc23)c(Cl)c1` [Example 148], the concentration giving a half-maximal response (EC50) (Table 1) stood at 60.6 nM.

Where the note is “Table 2”, `O=C(N[C@@H](Cc1ccc(-c2c(Cl)cc(F)cc2OC(F)F)c2ncccc12)C(=O)O)c1c(F)cccc1F` [Example 149] had a concentration for a half-maximal effect (EC50) of 50.3 nM.

With `N#Cc1ccc(-c2ccc(C[C@H](NC(=O)c3c(F)cc(C4=CCOCC4)cc3F)C(=O)O)c3cccnc23)c(Cl)c1` [Example 150], a half-maximal response (Table 2) (EC50) required 43.6 nM.

`Cc1nc(-c2ccc(C[C@H](NC(=O)c3c(F)cc(N4CCOC[C@@H]4C(F)(F)F)cc3F)C(=O)O)c3cccnc23)c(=O)n(C)c1C` [Example 151] gave an EC50 (Table 2) of 0.2 nM.

Take `Cn1c(=O)c(-c2ccc(C[C@H](NC(=O)c3c(F)cc(NS(=O)(=O)C(F)F)cc3F)C(=O)O)c3cccnc23)cc2ccccc21` [Example 153]: the EC50 (Table 2) worked out at 0.2 nM.

Where the note is “Table 2”, `C[C@@H](NC(=O)c1cc(F)c(C(=O)N[C@@H](Cc2ccc(-c3ccc(C#N)cc3Cl)c3ncccc23)C(=O)O)c(F)c1)C(F)(F)F` [Example 154] registered an EC50 of 44.6 nM.

In the case of `COc1c(-c2ccc(C[C@H](NC(=O)c3c(F)cc(N[C@H](C)C(F)(F)F)cc3F)C(=O)O)c3cccnc23)c(=O)n(C)c2ccccc12` [Example 156], the EC50 (Table 2) stood at 0.3 nM.

`O=C(N[C@@H](Cc1ccc(Oc2nccc3ccccc23)c2ncccc12)C(=O)O)c1c(Cl)cccc1Cl` [Example 157] showed a concentration for a half-maximal effect (EC50) (Table 2) of 44 nM.

The molecule `Cn1c(C2CC2)cc(C(F)(F)F)c(-c2ccc(C[C@H](NC(=O)c3c(F)cc(N4CCOC[C@@H]4C(F)(F)F)cc3F)C(=O)O)c3cccnc23)c1=O` [Example 158] yielded an EC50 (Table 2) of 0.3 nM.

On to `Cc1cc(C(F)(F)F)c(-c2ccc(C[C@H](NC(=O)c3c(F)cc(N4CCOC[C@@H]4C(F)(F)F)cc3F)C(=O)O)c3cc(F)cnc23)c(=O)n1C` [Example 159], for which the midpoint of the response (Table 2), the EC50, lay at 0.3 nM.

The molecule `Cc1cc(N2CCOC[C@@H]2C(F)(F)F)cc(Cl)c1C(=O)N[C@@H](Cc1ccc(-c2c(C(F)(F)F)cc(C)n(C)c2=O)c2ncccc12)C(=O)O` [Example 160] came in with a half-maximal effective concentration (EC50) (Table 2) of 0.3 nM.

`Cc1c(Cl)cc(-c2ccc(C[C@H](NC(=O)c3c(F)cc(N4CCOC[C@@H]4C(F)(F)F)cc3F)C(=O)O)c3cccnc23)c(=O)n1C` [Example 161]: the EC50 (Table 2) turned out to be 0.3 nM.

`C[C@H](NC(=O)c1cc(F)c(C(=O)N[C@@H](Cc2ccc(-c3ccc(C#N)cc3Cl)c3ncccc23)C(=O)O)c(F)c1)c1ccccc1` [Example 162] displayed a half-maximal effective concentration (EC50) (Table 2) of 53.5 nM.

Consider `CC[C@@H](Nc1cc(F)c(C(=O)N[C@@H](Cc2ccc(-c3c(C(F)(F)F)cc(C4CC4)n(C)c3=O)c3ncccc23)C(=O)O)c(F)c1)C(F)(F)F` [Example 163], for which, where the note is “Table 2”, the response was half-maximal at 0.4 nM (EC50).

Where the note is “Table 2”, `N#Cc1ccc(-c2ccc(C[C@H](NC(=O)c3c(F)cc(NC4(C(F)(F)F)CCC4)cc3F)C(=O)O)c3cccnc23)c(Cl)c1` [Example 164] had an EC50 of 88.6 nM.

`Cc1c(Cl)cn(C)c(=O)c1-c1ccc(C[C@H](NC(=O)c2c(F)cc(N3CCOC[C@@H]3C(F)(F)F)cc2F)C(=O)O)c2cccnc12` [Example 165] showed an EC50 (Table 2) of 0.4 nM.

For the setting “Table 2”, `COc1cc(C)n(C)c(=O)c1-c1ccc(C[C@H](NC(=O)c2c(F)cc(N[C@H](C3CC3)C(F)(F)F)cc2F)C(=O)O)c2cccnc12` [Example 166] gave a half-maximal effective concentration (EC50) of 0.4 nM.

For the molecule `CC[C@@H](Nc1cc(F)c(C(=O)N[C@@H](Cc2ccc(-c3c(C(F)F)cc(C)n(C)c3=O)c3ncccc23)C(=O)O)c(F)c1)C(F)(F)F` [Example 167], a half-maximal effect (Table 2) (EC50) was put at 0.4 nM.

For the origin of these results see US11116760B2 (Gilead Sciences, Inc., priority 2018, dated 2021).
